Results as given in patent US6589570B1, “Pharmaceutical formulation useful for the treatment of hepatitis B, hepatitis C and other viral infections of the liver and a process for its preparation” (priority 1999, dated 2003).

How the values were obtained:
[1] = system: isolated rat hepatocytes; experiment: Anti hepatotoxic potential, β-galactosamine challenged isolated rat hepatocytes; assay type: cell-based; conditions: 0.5 mM
Procedure: The liver was perfused through the portal vein with 30-50 ml of cold sodium citrate (0.027M) in calcium free lockets solution. During the perfusion, the liver gets blanched and fully distended. Perfusion is generally completed within 5 minutes of anaesthetizing the animal. The perfused liver is excised and washed well with the perfusion fluid and pressed in folds of sterile filter paper, weighed and cut into several small pieces and with a pair of scissors. A known wet weight of the liver (usually between 2-6 gm) was transferred with 5 volume of cold 0.25M sucrose into a sterile glass homogenizer and finely grounded. The cell suspension was filtered once, without application of pressure through 200-mesh brass gauze to remove strands of connective tissue and clumps of cells. The suspension contained some cell debris and blood cells at this stage, which were removed by centrifugation at a low speed (100-200 g) for 2 minutes. After removal of the supernatant, the cell sediment was resuspended in a known volume of the minimum essential medium for further studies. […] The cells, which have not taken the dye, are live cells, which are counted. […] Four sets of isolated rat hepatocyte cultures were put up. […] Set III with 0.5 mM concentration of β-galactosamine, a known hepatotoxic agent and set IV was treated with β-galactosamine and then protected with the formulation of the present invention. […]

[2] = system: cultured rat hepatocytes; conditions: cited from earlier work

Structure (SMILES) | hepatotoxicity on isolated rat hepatocytes [1] | CCl4 or galatosamine induced cytotoxicity to cultured rat hepatocytes [2]
N[C@@H]1[C@@H](O)[C@@H](O)[C@@H](CO)O[C@H]1O [β-galactosamine] | profound hepatotoxic chemical | 
COC[C@@H](Cc1ccc(OC)c(OC)c1)[C@@H](COC)Cc1ccc(OC)c(OC)c1 [Phyllanthin] |  | reduced
COC[C@@H]1Cc2cc(OC)c3c(c2[C@H](c2ccc(OC)c(OC)c2)[C@H]1COC)OCO3 [Hypo phyllanthin] |  | reduced
